Results published in patent US5183821A, “Method for treating leukemias using N-(2-dimethylaminoethyl)-3-amino-1,8-naphthalimide for treating leukemias and solid tumors” (priority 1991, dated 1993).
In brackets after ≈: the same amount, converted by molar mass. Entries after “also recorded” stand apart in the source; their conditions may differ.

Legend:
L-1210 Lymphoid Leukemia = experiment: NCI screen, L-1210 Lymphoid Leukemia, intraperitoneal (summary); assay type: in vivo, Mouse; conditions: for dosage range over which activity was observed: i.p. L1210, ILS≥25%; for Table II evaluation: full wrapped cell: Activity substantially greater than the minimal
Text: (§1) The activity of the compound has been evaluated by experiments carried out under the auspices of the Division of Cancer Treatment, National Cancer Institute, employing techniques considered to be reliable indicators of chemotherapeutic utility in the treatment of forms of cancer in human patients. The details of the methodology employed in the reported experiments may be determined with reference to established NCI screening methods.
(§2) In the experiments conducted by the NCI, evaluation of activity is made on the basis of appropriate parameters, such as median survival time (MST) or change in average tumor diameter (CATD)in ocular micrometer units (OMU).

B16 Melanocarcinoma = experiment: NCI screen, B16 Melanocarcinoma, intraperitoneal (summary); assay type: in vivo, Mouse; conditions: for Antitumor activity in words: B16
Text: as §1, §2

Lewis lung carcinoma = experiment: NCI screen, Lewis lung carcinoma, intravenous (summary); assay type: in vivo, Mouse; conditions: for Antitumor activity in words: Lewis lung carcinoma
Text: as §1, with “methods. In the experiments conducted by the NCI, evaluation of activity is made on the basis of appropriate parameters, such as median survival time (MST) or change in average tumor diameter (CATD)in ocular micrometer units (OMU).” for “methods.”

HeLa cells = conditions: cytotoxic activity in vitro, monolayer; cited from earlier work
Colon 38 = experiment: Experiment 14: Colon 38 s.c., saline with Tween-80, female; assay type: in vivo, Mouse B6 D2 F1 (BDF1)
Text: Host: Mouse B6 D2 F1 (BDF1)
Inoculum Site: Subcutaneous
Vehicle: Saline with Tween-80
Treatment schedule (relative to tumor inoculation day): Days 2 and 9
Day of evaluation (relative to tumor inoculation day): 20
Parameter: Median tumor weight (MTW) estimated from tumor diameter
NCI minimal activity criteria: Percent T/C≤42
Percent T/C: Ratio of test (T) evaluation to control (C) evaluation expressed as a percentage

LX-1 lung xenograft = experiment: NCI screen, LX-1 lung xenograft, renal capsule (summary); assay type: in vivo, human tumor xenograft in athymic mice; conditions: for Antitumor activity in words: LX-1 lung xenograft
Text: as §1, §2

[1] = tested on: MX-1 mammary tumor xenograft; experiment: NCI screen, MX-1 breast (mammary) xenograft, renal capsule (summary); assay type: in vivo, human tumor xenograft in athymic mice; conditions: for Antitumor activity in words: MX-1 mammary xenograft
Text: as §1, §2

Fischer 344 rats [2] = experiment: Single dose rat toxicity study; assay type: in vivo; conditions: for toxicity summary, rats: single dose i.v. (X1)
Method: (§3) Preclinical toxicity studies of BIDA were completed in CD2F1 Mice, Fischer 344 rats and beagle dogs (4). The animals were injected IV with a single bolus or daily for five days.
(§4) A preclinical toxicology study of benzisoquinolinedione (NSC-308847) was done at Springborn Institute for Bioresearch, Inc. using CD2 F1 mice, Fischer 344 rats and beagle dogs. Animals were injected intravenously on a single dose (X1) or five daily dose (X5) regimen. Bulk drug was titrated with 0.5N HCl to form a salt solution of benzisoquinolinedione at a pH of 5.0-6.5. Sterile 0.9% saline was used for diluting the dosing solutions and was used for the vehicle control animals.
(§5) The following summarizes the major organ toxicities resulting from IV administration of benzisoquinolinedione to rats.

Fischer 344 rats [3] = experiment: Five daily dose rat toxicity study; assay type: in vivo; conditions: for toxicity summary, rats: five daily doses i.v. (X5)
Method: as §3, §4, §5

[4] = change in average tumor diameter, 4 tests, full wrapped cell: Activity not confirmed
[5] = 15.0 mg/kg, listed as benzisoquinolinedione
[6] = listed as benzisoquinolinedione
[7] = 12.0 mg/kg/day, listed as benzisoquinolinedione
[8] = 24.0 mg/kg/day, females, day 8-9
[9] = 24.0 mg/kg/day, listed as benzisoquinolinedione

## CN(C)CCN1C(=O)c2cccc3cc(N)cc(c23)C1=O [Example 9, 1H-Benz[de]isoquinoline-1,3(2H)-dione, 5-amino-2-[2-(dimethylamino)ethyl]]
L-1210 Lymphoid Leukemia; listed as BIDA
  dosage range over which activity was observed: two-fold dosing range
L-1210 Lymphoid Leukemia; listed as the compound
  dosage range over which activity was observed: two-fold dosage range
L-1210 Lymphoid Leukemia; ip, 16 mg/kg
  mean optimal increased life span (ILS): 96%
  optimal increased life spans (ILS): 75-117%
L-1210 Lymphoid Leukemia; mean survival time, 12 tests
  Table II evaluation: Activity
L-1210 Lymphoid Leukemia; median survival time, 21 tests
  Table II evaluation: Activity
L-1210 Lymphoid Leukemia; p.o. or I.V.
  activity by other routes: is retained when given p.o. or I.V.
L-1210 Lymphoid Leukemia; solution in 0.1 N HCl diluted with saline
  ILS: 117%
B16 Melanocarcinoma; 16 mg/kg i.p. days 1-9, three experiments
  increased life spans: 37-55%
B16 Melanocarcinoma; listed as BIDA
  Antitumor activity in words: Activity was seen
B16 Melanocarcinoma; listed as the compound
  Antitumor activity in words: at least a reproducible minimal activity; also recorded: active
B16 Melanocarcinoma; median survival time, 28 tests, full wrapped cell: Reproducible minimal activity
  Table II evaluation: Reproducible minimal
Lewis lung carcinoma; listed as BIDA
  Antitumor activity in words: not active
Lewis lung carcinoma; listed as the compound
  Antitumor activity in words: not observed to be effective
Lewis lung carcinoma; median survival time, 12 tests, full wrapped cell: Activity not confirmed
  Table II evaluation: Activity not
HeLa cells
  ID50 in HeLa cells: 2.5 µg/mL (≈ 8.82 µM)
Colon 38; 2.00 mg/kg i.p.
  Median tumor weight (MTW): 2141
  Percent T/C: 111%
Colon 38; 4.00 mg/kg i.p.
  Median tumor weight (MTW): 1872
  Percent T/C: 97%
Colon 38; 8.00 mg/kg i.p.
  Median tumor weight (MTW): 1687
  Percent T/C: 87%
Colon 38; 16.00 mg/kg i.p.
  Median tumor weight (MTW): 2748
  Percent T/C: 142%
Colon 38; 32.00 mg/kg i.p.
  Median tumor weight (MTW): 1013
  Percent T/C: 52%
Colon 38; 64.00 mg/kg i.p.
  Median tumor weight (MTW): 1132
  Percent T/C: 58%
LX-1 lung xenograft; listed as BIDA
  Antitumor activity in words: No activity was seen
LX-1 lung xenograft; listed as the compound
  Antitumor activity in words: not active
LX-1 lung xenograft; [4]
  Table II evaluation: Activity not
[1]; listed as BIDA
  Antitumor activity in words: No activity was seen
[1]; listed as the compound
  Antitumor activity in words: not active
[1]; [4]
  Table II evaluation: Activity not
Fischer 344 rats [2]; 15.0 mg/kg (1/2MELD10), single
  Mortality / lethality: 0/20
Fischer 344 rats [2]; [5]
  Hematologic findings: Mild decreases in leukocytes were seen in males on day 4; also recorded: mild decreases in reticulocytes were seen in females
  Microscopic hematologic lesions: mild diffuse thymic atrophy in three male rats on day 4; also recorded: No hematologic lesions were seen in either sex on day 29
Fischer 344 rats [2]; 30.0 mg/kg, day 4 and day 29, listed as benzisoquinolinedione
  Microscopic hematologic lesions: moderate to marked diffuse bone marrow atrophy and mild to moderate diffuse thymic atrophy; also recorded: by day 29, no hematologic lesions were found
Fischer 344 rats [2]; 30.0 mg/kg, day 29
  Reproductive findings: All five long-term male rats showed decreased testicular weights
Fischer 344 rats [2]; 30.0 mg/kg, listed as benzisoquinolinedione
  Hematologic findings: Mild decreases in hemoglobin, hematocrit and red blood cells were seen in females on days 4 and 8, but not in males; also recorded: moderate decreases in reticulocytes and leukocytes on day 4 with moderate increases following on day 8
Fischer 344 rats [2]; 30.0 mg/kg, males, day 29
  mild diffuse testicular atrophy, incidence: four of five
Fischer 344 rats [2]; 35.0 mg/kg (MELD50), single
  Mortality / lethality: 0/20
Fischer 344 rats [2]; 35.0 mg/kg, day 4
  Microscopic hematologic lesions: marked to severe diffuse bone marrow atrophy and mild to moderate diffuse thymic atrophy
Fischer 344 rats [2]; 35.0 mg/kg, day 29, listed as benzisoquinolinedione
  Reproductive findings: All five male rats showed decreased testicular weights and mild diffuse testicular atrophy; also recorded: No reproductive lesions were seen in females
Fischer 344 rats [2]; 35.0 mg/kg, listed as benzisoquinolinedione
  Hematologic findings: Mild decreases in hemoglobin, hematocrit and red blood cells; also recorded: moderate decreases in reticulocytes in both sexes on day 4, followed by moderate increases on day 8; also recorded: Leukopenia (both lymphocytes and neutrophils); also recorded: Both sexes were comparable to controls on days 22 and 29
Fischer 344 rats [2]; MELD10, single, 30.0 mg/kg in text, 20.00 in Table 4
  Mortality / lethality: 0/20
Fischer 344 rats [2]; listed as BIDA
  toxicity summary, rats: reproductive system toxicity was seen at doses of MELD 10 and higher; also recorded: decreased testicular weights and mild diffuse testicular atrophy
Fischer 344 rats [2]; [6]
  toxicity summary, rats: toxic on both schedules (X1, X5) to the hematopoietic system and to the male reproductive system
Fischer 344 rats [3]; 6.0 mg/kg
  gross or microscopic lesions: No drug-related gross or microscopic lesions were found
Fischer 344 rats [3]; 6.0 mg/kg/day (1/2MELD10)
  Mortality / lethality: 0/20
Fischer 344 rats [3]; 6.0 mg/kg, listed as benzisoquinolinedione
  Hematologic findings: Female rats showed moderate increases in reticulocytes on days 15 and 22, followed by a moderate decrease on day 36; also recorded: The males were not affected
Fischer 344 rats [3]; 12.0 mg/kg/day (MELD10)
  Mortality / lethality: 0/20
Fischer 344 rats [3]; 12.0 mg/kg/day, day 36, listed as benzisoquinolinedione
  Reproductive findings: slight decrease in testicular weight on day 36; also recorded: moderate testicular atrophy in all males
Fischer 344 rats [3]; 12.0 mg/kg/day, females, day 8
  mild to moderate diffuse bone marrow atrophy, incidence: 4/5
Fischer 344 rats [3]; [7]
  Hematologic findings: Slight decreases in hemoglobin, hematocrit and red blood cells were seen in female rats on day 8; also recorded: moderate reticulocytopenia; also recorded: male rats had a mild increase in reticulocytes on day 22; also recorded: Females had slight to mild leukocytosis on days 15 and 22; also recorded: The males had a moderate increase in WBC only on day 15; also recorded: No microscopic lesions were seen on day 36 in either sex
  Integumentary findings: dry yellowish-white scaly tails; also recorded: microscopic evaluation did not show any tail lesions
Fischer 344 rats [3]; 12.0 mg/kg/day, males, day 8
  mild thymic atrophy, incidence: 1/5
  mild to moderate diffuse bone marrow atrophy, incidence: 4/5
Fischer 344 rats [3]; 24.0 mg/kg/day (2XMELD10), listed as benzisoquinolinedione
  Mortality / lethality: 5/20 and Two females were found dead and three females were sacrificed
Fischer 344 rats [3]; 24.0 mg/kg/day, day 36
  marked testicular atrophy, incidence: 2/5
  moderate testicular atrophy, incidence: 2/5
  severe testicular atrophy, incidence: 1/5
Fischer 344 rats [3]; 24.0 mg/kg/day, females
  moderate to marked spleen atrophy, incidence: 3/10
Fischer 344 rats [3]; 24.0 mg/kg/day, females, day 8
  marked jejunal epithelial degeneration, incidence: 5/10
  marked necrosis of mesenteric lymph node, incidence: 1/10
  mild atrophy of mesenteric lymph node, incidence: 1/10
  mild to marked duodenal epithelial degeneration, incidence: 5/10
  mild to marked duodenal epithelial necrosis, incidence: 7/10
  mild to marked ileal epithelial necrosis, incidence: 10/10
  mild to marked jejunal epithelial necrosis, incidence: 9/10
  mild to severe colonic epithelial necrosis, incidence: 3/10
  moderate to marked ileal epithelial degeneration, incidence: 5/10
Fischer 344 rats [3]; [8]
  marked to severe bone marrow atrophy, incidence: 10/10
  marked to severe thymic atrophy, incidence: 9/10
Fischer 344 rats [3]; 24.0 mg/kg/day, females, day 9
  Hepatic findings: multifocal liver necrosis in two females
Fischer 344 rats [3]; [9]
  Gastrointestinal findings: Diarrhea was observed on days 6 to 10 in males and days 6 to termination (day 8 or 9) in females; also recorded: mild to marked epithelial degeneration and necrosis of the duodenum, jejunum and ileum of both sexes; also recorded: No lesions were seen in long-term males; also recorded: emaciation (days 7-12) and dehydration (days 9-12)
  Hematologic findings: Mild increases in hemoglobin, hematocrit and red blood cells were seen in male rats on day 8; also recorded: moderate to slight decreases in these parameters on days 15 and 22; also recorded: No reticulocytes were observable in either sex on day 8; also recorded: marked decreases being seen on day 8, followed by moderate to marked increases above baselines on days 15 and 22; also recorded: mild thrombocytosis
  Reproductive findings: All five males showed decreased testicular weights on day 36; also recorded: No reproductive lesions were seen on day 8 in males or females
Fischer 344 rats [3]; 24.0 mg/kg/day, males, day 8
  marked jejunal epithelial degeneration, incidence: 4/5
  marked to severe bone marrow atrophy, incidence: 5/5
  marked to severe thymic atrophy, incidence: 3/5
  mild necrosis of the hair bulb, incidence: 2/5
  mild to marked duodenal epithelial degeneration, incidence: 4/5
  mild to marked duodenal epithelial necrosis, incidence: 5/5
  mild to marked ileal epithelial necrosis, incidence: 4/5
  mild to marked jejunal epithelial necrosis, incidence: 4/5
  moderate to marked ileal epithelial degeneration, incidence: 4/5
Fischer 344 rats [3]; 24.0 mg/kg/day, males, day 26 as printed
  depression of group mean body weights: 31
Fischer 344 rats [3]; 24.0 mg/kg/day, males, day 36
  body weight loss at termination: 31
  moderate bone marrow atrophy, incidence: 1/5
  moderate to marked hyperkeratosis, incidence: 4/5
  moderate to severe thymic atrophy, incidence: 2/5
Fischer 344 rats [3]; 24.0 mg/kg/day, males, days 15 and 22
  depression of group mean body weights: 26
Fischer 344 rats [3]; 24.0 mg/kg/day, males, listed as benzisoquinolinedione
  Tail (integumentary) findings: the tail skin was friable and sloughing in males; also recorded: severe tail necrosis in all five males
Fischer 344 rats [3]; 2XMELD10, X5
  Deaths, females: one-half of the females
Fischer 344 rats [3]; listed as BIDA
  toxicity summary, rats: reproductive system toxicity was seen at doses of MELD 10 and higher
Fischer 344 rats [3]; [6]
  toxicity summary, rats: toxic on both schedules (X1, X5) to the hematopoietic system and to the male reproductive system; also recorded: gastrointestinal, tail lesions and possibly hepatotoxicity; also recorded: Toxicity to the testes and tails was delayed and had not reversed by day 36
